Data: US5948662A, “Bacillus-derived transglutaminase” (Ajinomoto Co., Inc., priority 1995, dated 1999)
Read-outs that look alike come from different tables or passages of the source.

Tests used:
[1] = biological target: T1, Bacillus subtilis AJ1307-derived TG (TG-1) (Bacillus subtilis, UniProt P40746, D22N); type: biochemical; conditions: for Influence of reagent on TG activity (in words): TG-1, summary of Table 1; for Remaining Activity (relative value): pH 7.5, 37° C.
T1 construct: The thus-obtained cells were used as the starting material, from which TG was purified in the manner mentioned below; endogenous in cells; host or cells: Bacillus subtilis AJ1307 (enzyme solubilized from spores and purified to a single band)
Procedure: The TG activity of the enzyme liquids obtained below was determined according to an enzymatic activity measuring method, which is as follows. […] The thus-counted value was referred to as the TG activity of the enzyme liquid.
Effects, if any, of various reagents on the TG activity were checked. The reagents tested herein were N-ethylmaleimide (NEM), cystamine, phenylmethanesulfonyl fluoride (PMSF), ammonium sulfate, sodium sulfate, EDTA, EGTA, calcium chloride, dithiothreitol (DTT) and 2-mercaptoethanol (2-ME). All were bought from Nacalai Tesque, Inc.
As the enzyme source, the previously-prepared pure TG fraction was used at a concentration of 2 μg/ml. The protein concentration was measured, using a protein assay kit (produced by Bio Rad Co.).
To measure the TG activity, the above-mentioned method of using ^1 4C-labeled putrescine and dimethylcasein as the substrates (at pH of 7.5 and at 37° C.) was employed. As the enzyme source, the previously-prepared pure TG fraction was used at a concentration of 2 μg/ml. The reaction was conducted at 37° C. for 30 minutes.
The TG activity was measured in the following manner. The above-mentioned pure TG fraction was mixed with each one of the reagents that had been adjusted to have a suitable concentration and then left on ice for 30 minutes. The solution of the enzyme source thus reacted with each reagent was adjusted to have a TG concentration of 2 μg/ml and then reacted with the substrates, whereupon the TG activity still remained in the resulting reaction system was measured (at pH of 7.5 and at 37° C.).

[2] = test system: Bacillus subtilis-derived TG reported by Ramanujam et al.; conditions: cited from earlier work
[3] = biological target: T2, Bacillus subtilis AJ12866-derived TG (TG-2) (Bacillus subtilis, UniProt P40746); assay: Influence of reagents on TG activity (TG active fraction after gel permeation, TG-2); conditions: for Remaining Activity (relative value): control = 100
T2 sequence (P40746 1-245): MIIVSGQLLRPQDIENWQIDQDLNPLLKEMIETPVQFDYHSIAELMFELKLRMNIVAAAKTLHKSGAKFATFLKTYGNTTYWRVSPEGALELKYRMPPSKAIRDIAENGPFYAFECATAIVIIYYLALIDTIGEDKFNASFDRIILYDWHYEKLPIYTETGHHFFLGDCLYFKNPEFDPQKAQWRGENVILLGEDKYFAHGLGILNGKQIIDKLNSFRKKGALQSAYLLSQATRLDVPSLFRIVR
Procedure: The method for measuring the enzymatic activity as employed herein was as follows. 50 μl of a reaction system (100 mM Tris-HCl, pH 7.5, 6.3 mg/ml dimethylcasein, 10 nM ^14 C-putrescine, 1.2 μCi) containing 10 μl of the enzyme sample to be measured was kept at 37° C. for 30 minutes thereby to make the substrates reacted. After the reaction, 40 μl of the reaction mixture was adsorbed onto filter paper. In the reaction mixture, the putrescine was reacted with the dimethylcasein due to the catalysis of the TG therein. A bonded reaction product of the putrescine and the dimethylcasein was adsorbed on the filter paper. By adding 10% TCA thereto, the bonded reaction product was fixed on the filter paper. Then, the filter paper was washed three times with a 5% TCA solution, and the ^1 4C radioactivity as fixed to the filter paper was counted with a liquid scintillation counter. The value thus measured corresponds to the relative TG activity of the enzyme sample.
The cells of Bacillus subtilis AJ12866 strain were suspended in a reaction system (0.5 mg/ml lysozyme, 20 μg/ml DNase I, 0.1 M Tris-HCl (pH 7.5), 2 mM DTT, 1 mM EDTA, 2 mM PMSF) and reacted on ice for 2 hours whereby the cells were lysed. The resulting reaction mixture was centrifuged at 20,000×g for 20 minutes, and the precipitate fraction thus obtained was suspended in a washing system (0.1 M Tris-HCl (pH 7.5), 1 mM EDTA, 2 mM PMSF). The resulting suspension was centrifuged, and the precipitate was collected. This operation was repeated for a total of two times.
The thus-obtained precipitate fraction was suspended in a buffer (0.1 M sodium carbonate (pH 10), 1 mM EDTA, 2 mM PMSF) and left at 37° C. for 30 minutes. Meanwhile, a part of the substances that had existed in the precipitate fraction were dissolved in the buffer and the TG activity was transferred to the soluble fraction. […] The pH of the supernatant was adjusted to 6.0 by adding acetic acid thereto. This is referred to as a crude enzyme liquid. The crude enzyme liquid was concentrated by ultrafiltration and then dialyzed against a buffer (50 mM Tris-HCl (pH 7.5), 0.1 M NaCl), whereby the buffer was exchanged. The resulting crude enzyme liquid was subjected to gel permeation, and the TG active fraction thus eluted was collected. The enzymatic properties of the fraction were measured.

[4] = agent concentration 10 (unit not given), control = 100
[5] = agent concentration 5 (unit not given), control = 100

T1 sequence (P40746 whole entry D22N): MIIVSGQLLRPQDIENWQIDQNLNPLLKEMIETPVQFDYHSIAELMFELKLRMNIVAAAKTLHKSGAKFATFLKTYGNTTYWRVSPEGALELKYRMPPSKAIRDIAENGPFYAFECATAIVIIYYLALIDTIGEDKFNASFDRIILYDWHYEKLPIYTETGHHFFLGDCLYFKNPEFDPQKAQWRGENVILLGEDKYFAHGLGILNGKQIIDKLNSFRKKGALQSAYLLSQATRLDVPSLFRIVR

Structure (SMILES)	Influence of reagent on TG activity (in words) [1]	Remaining Activity (relative value) [1, 4]	Influence of reagent on TG activity (in words) ([3]; TG-2, Ca^2+ at 5 mM or more)	Remaining Activity (relative value) ([3]; agent concentration 10 mM)	also measured
O[C@H](CS)[C@H](O)CS (racemic) [DTT, dithiothreitol]	not inhibited	119	not inhibited	–	Influence of reagent on the activity of the reported TG (in words) [2]: inhibited; Increase of TG activity in the presence of DTT ([3]; 1 mM of DTT): ≥ 1.5 times
OCCS [2-ME, 2-mercaptoethanol]	not inhibited	111	–	122	–
N.N.O=S(=O)(O)O [(NH4)2 SO4, ammonium sulfate]	inhibited	1	greatly inhibited	3	–
[Ca+2].[Cl-].[Cl-] [CaCl2, calcium chloride]	–	–	not inhibited	–	TG activity maintained in the presence of Ca2+ ([1]; Ca2+ of not less than 5 mM): not less than 50%; Remaining Activity (relative value) [1, 5]: 65; Influence of Ca^2+ on the reported TG (in words) ([2]; Ca^2+ of 5 mM or more): inhibited
O=C(O)CN(CCN(CC(=O)O)CC(=O)O)CC(=O)O [EDTA, ethylenediamine-tetraacetic acid]	not inhibited	107	–	–	Influence of reagent on TG activity (in words) [3]: almost no influence
O=C(O)CN(CCOCCOCCN(CC(=O)O)CC(=O)O)CC(=O)O [EGTA]	not inhibited	98	–	94	Influence of reagent on the activity of the reported TG (in words) [2]: greatly inhibited
CCN1C(=O)C=CC1=O [NEM, N-ethylmaleimide]	inhibited	–	greatly inhibited	–	Remaining Activity (relative value) ([1]; agent concentration 1 (unit not given), TG not reacted with reagent = 100, 30 min on ice with reagent): 17
O=S(=O)([O-])[O-].[Na+].[Na+] [Na2 SO4, sodium sulfate]	not inhibited	87	–	85	–
O=S(=O)(F)Cc1ccccc1 [PMSF, phenylmethanesulfonyl fluoride]	–	–	–	–	Remaining Activity (relative value) [1, 5]: 89; Remaining Activity (relative value) ([3]; agent concentration 5 mM): 95
NCCSSCCN [cystamine]	inhibited	–	greatly inhibited	–	Remaining Activity (relative value) ([1]; agent concentration 2 (unit not given), control = 100): 0
